Source: the supplement of paper PMC10627819

Experiments:
[1] = test system: S. aureus DSM 20231; assay: Bliss interaction score (quartile over a dose matrix) (fitness difference); higher = more antagonism (negative = synergy)
Outline: (§1)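 Fitness here means normalised growth, inferred for single drugs from the combination data. Growth was OD595 at entry into stationary phase, divided by the plate's robust no-drug mean and capped at 1. The Bliss score is observed minus expected fitness, with the expectation being the product, and its quartiles span technical, biological and donor/recipient replicates.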

[2] = test system: B. subtilis 168; assay: as above
Outline: as §1

[3] = test system: S. pneumoniae D39V; assay: as above
Outline: as §1

[4] = test system: S. aureus Newman; assay: as above
Outline: as §1

[5] = test system: S. aureus DSM 20231; assay: fitness (endpoint OD595 vs no drug) (fraction); higher = more growth
Outline: (§2)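 Fitness was measured as bacterial growth in 384-well plates inoculated at OD595 0.01 (30 µl, or 55 µl for S. pneumoniae). Media were TSB, LB Lennox or CY, at 37 °C. OD595 was read every 30 min for 14 h and background-subtracted against the first reading. Fitness is OD595 at the transition into stationary phase divided by the robust mean of no-drug control wells, capped at 1.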

[6] = test system: B. subtilis 168; assay: as above
Outline: as §2

[7] = test system: S. pneumoniae D39V; assay: as above
Outline: as §2

[8] = test system: S. aureus Newman; assay: as above
Outline: as §2
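For Bliss interaction score (quartile over a dose matrix) in this document: first quartile when negative (synergy) and third quartile when positive (antagonism).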
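For fitness (endpoint OD595 vs no drug) in this document: OD595 on entry to stationary phase over no-drug wells; at most 1.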

Cc1ncc([N+](=O)[O-])n1CCO [Metronidazole] + COc1ccc(C[C@H](N)C(=O)N[C@H]2[C@@H](O)[C@H](n3cnc4c(N(C)C)ncnc43)O[C@@H]2CO)cc1 [Puromycin]
Settings	Bliss interaction score
[1]	0.0499
[2]	-0.0368
[3]	0.129
[4]	0.0534

fitness
Settings	first compound 0.625 µg/mL	first compound 1.073 µg/mL	first compound 1.25 µg/mL	first compound 2.145 µg/mL	first compound 2.5 µg/mL	first compound 4.29 µg/mL
[5], partner 0.39 µg/mL	0.997	–	≥ 1	–	≥ 1	–
[5], partner 0.78 µg/mL	≥ 1	–	≥ 1	–	≥ 1	–
[5], partner 1.56 µg/mL	≥ 1	–	≥ 1	–	≥ 1	–
[6], partner 0.39 µg/mL	0.936	–	0.945	–	0.961	–
[6], partner 0.78 µg/mL	0.953	–	0.931	–	0.937	–
[6], partner 1.56 µg/mL	0.946	–	0.895	–	0.864	–
[7], partner 1 µg/mL	–	≥ 1	–	0.875	–	0.96
[7], partner 2 µg/mL	–	0.973	–	0.904	–	0.914
[7], partner 4 µg/mL	–	0.874	–	0.836	–	0.88
[8], partner 0.39 µg/mL	0.902	–	0.998	–	≥ 1	–
[8], partner 0.78 µg/mL	0.968	–	≥ 1	–	≥ 1	–
[8], partner 1.56 µg/mL	≥ 1	–	≥ 1	–	≥ 1	–

one replicate
Settings	fitness
[5], first compound 0.625 µg/mL, partner 3.12 µg/mL	≥ 1
[5], first compound 0.625 µg/mL, partner 6.24 µg/mL	0.756
[5], first compound 1.25 µg/mL, partner 3.12 µg/mL	0.957
[5], first compound 1.25 µg/mL, partner 6.24 µg/mL	0.827
[5], first compound 2.5 µg/mL, partner 3.12 µg/mL	0.977
[5], first compound 2.5 µg/mL, partner 6.24 µg/mL	0.848
[7], first compound 1.25 µg/mL, partner 1 µg/mL	0.928
[7], first compound 1.25 µg/mL, partner 2 µg/mL	0.97
[7], first compound 1.25 µg/mL, partner 4 µg/mL	0.842
[7], first compound 2.5 µg/mL, partner 1 µg/mL	0.936
[7], first compound 2.5 µg/mL, partner 2 µg/mL	≥ 1
[7], first compound 2.5 µg/mL, partner 4 µg/mL	0.835
[7], first compound 5 µg/mL, partner 1 µg/mL	0.97
[7], first compound 5 µg/mL, partner 2 µg/mL	0.95
[7], first compound 5 µg/mL, partner 4 µg/mL	0.852
[8], first compound 0.781 µg/mL, partner 0.39 µg/mL	≥ 1
[8], first compound 0.781 µg/mL, partner 0.78 µg/mL	≥ 1
[8], first compound 0.781 µg/mL, partner 1.56 µg/mL	≥ 1
[8], first compound 1.562 µg/mL, partner 0.39 µg/mL	0.974
[8], first compound 1.562 µg/mL, partner 0.78 µg/mL	0.997
[8], first compound 1.562 µg/mL, partner 1.56 µg/mL	≥ 1
[8], first compound 3.124 µg/mL, partner 0.39 µg/mL	0.933
[8], first compound 3.124 µg/mL, partner 0.78 µg/mL	≥ 1
[8], first compound 3.124 µg/mL, partner 1.56 µg/mL	≥ 1

COc1cccc2c1C(=O)c1c(O)c3c(c(O)c1C2=O)C[C@@](O)(C(=O)CO)C[C@@H]3O[C@H]1C[C@H](N)[C@H](O)[C@H](C)O1 [Doxorubicin] + CC1=C\[C@@H](O)CC(=O)Cc2nc(co2)C(=O)N2CCC=C2C(=O)O[C@H](C(C)C)[C@H](C)/C=C/C(=O)NC\C=C\1 [Virginiamycin M1]
Settings	Bliss interaction score
[1]	-0.0467
[2]	0.0827
[3]	0.0614
[4]	-0.0655

fitness
Settings	first compound 0.25 µg/mL	first compound 0.5 µg/mL	first compound 0.625 µg/mL	first compound 1 µg/mL	first compound 1.25 µg/mL	first compound 2.5 µg/mL
[5], partner 0.0625 µg/mL	–	–	0.874	–	0.872	0.779
[5], partner 0.125 µg/mL	–	–	0.944	–	0.903	0.82
[5], partner 0.25 µg/mL	–	–	0.873	–	0.862	0.802
[6], partner 0.0625 µg/mL	–	–	0.975	–	0.901	0.653
[6], partner 0.125 µg/mL	–	–	0.939	–	0.904	0.639
[6], partner 0.25 µg/mL	–	–	0.96	–	0.911	0.7
[7], partner 0.5 µg/mL	0.964	0.961	–	0.969	–	–
[7], partner 1 µg/mL	0.997	≥ 1	–	0.951	–	–
[7], partner 2 µg/mL	0.92	0.9	–	0.898	–	–
[8], partner 0.0625 µg/mL	–	–	0.76	–	0.766	0.768
[8], partner 0.125 µg/mL	–	–	0.795	–	0.802	0.756
[8], partner 0.25 µg/mL	–	–	0.788	–	0.784	0.746

fitness, one replicate
Settings	first compound 0.25 µg/mL	first compound 0.5 µg/mL	first compound 0.625 µg/mL	first compound 1 µg/mL	first compound 1.25 µg/mL	first compound 2.5 µg/mL
[5], partner 0.5 µg/mL	–	–	0.873	–	0.803	0.706
[5], partner 1 µg/mL	–	–	0.769	–	0.708	0.761
[7], partner 0.15 µg/mL	0.86	0.865	–	0.911	–	–
[7], partner 0.3 µg/mL	0.823	0.836	–	0.888	–	–
[8], partner 0.5 µg/mL	–	–	0.81	–	0.809	0.703
[8], partner 1 µg/mL	–	–	0.924	–	0.871	0.793
[8], partner 2 µg/mL	–	–	0.837	–	0.696	0.664

C[C@@H]1O[C@@H]1P(=O)(O)O [Fosfomycin] + C[n+]1ccc(-c2cc[n+](C)cc2)cc1 [Paraquat]
Settings	Bliss interaction score
[1]	-0.101
[2]	-0.0619
[3]	-0.0411
[4]	-0.12

fitness
Settings	partner 1.25 µg/mL	partner 1.5 µg/mL	partner 2.5 µg/mL	partner 3 µg/mL	partner 5 µg/mL	partner 6 µg/mL
[5], first compound 0.781 µg/mL	0.717	–	0.7	–	0.702	–
[5], first compound 1.562 µg/mL	0.593	–	0.551	–	0.585	–
[5], first compound 3.124 µg/mL	0.481	–	0.51	–	0.476	–
[6], first compound 1.562 µg/mL	0.681	–	0.673	–	0.567	–
[6], first compound 3.124 µg/mL	0.529	–	0.598	–	0.519	–
[6], first compound 6.248 µg/mL	0.381	–	0.386	–	0.3	–
[7], first compound 1.25 µg/mL	–	0.985	–	0.959	–	0.985
[7], first compound 2.5 µg/mL	–	0.974	–	0.973	–	0.97
[7], first compound 5 µg/mL	–	0.812	–	0.831	–	0.791
[8], first compound 0.781 µg/mL	0.542	–	0.546	–	0.574	–
[8], first compound 1.562 µg/mL	0.468	–	0.47	–	0.483	–
[8], first compound 3.124 µg/mL	0.0901	–	0.116	–	0.169	–

COc1cccc2c1C(=O)c1c(O)c3c(c(O)c1C2=O)C[C@@](O)(C(=O)CO)C[C@@H]3O[C@H]1C[C@H](N)[C@H](O)[C@H](C)O1 [Doxorubicin] + O=C(O[C@@H]1Cc2c(O)cc(O)cc2O[C@@H]1c1cc(O)c(O)c(O)c1)c1cc(O)c(O)c(O)c1 [EGCG]
Settings	Bliss interaction score
[1]	-0.107
[2]	-0.0819
[3]	0.0782
[4]	0.0447

fitness
Settings	partner 6.25 µg/mL	partner 12.5 µg/mL	partner 25 µg/mL	partner 50 µg/mL
[5], first compound 0.625 µg/mL	–	0.688	0.707	–
[5], first compound 1.25 µg/mL	–	0.708	0.676	–
[5], first compound 2.5 µg/mL	–	0.728	0.715	–
[6], first compound 0.625 µg/mL	0.934	0.617	–	–
[6], first compound 1.25 µg/mL	0.932	0.554	–	–
[6], first compound 2.5 µg/mL	0.737	0.429	–	–
[7], first compound 0.25 µg/mL	–	0.916	0.987	0.924
[7], first compound 0.5 µg/mL	–	0.904	0.845	≥ 1
[7], first compound 1 µg/mL	–	–	0.804	0.903
[8], first compound 0.625 µg/mL	–	0.731	0.712	–
[8], first compound 1.25 µg/mL	–	0.705	0.703	0.594
[8], first compound 2.5 µg/mL	–	0.678	0.66	0.617

COc1cccc2c1C(=O)c1c(O)c3c(c(O)c1C2=O)C[C@@](O)(C(=O)CO)C[C@@H]3O[C@H]1C[C@H](N)[C@H](O)[C@H](C)O1 [Doxorubicin] + C[n+]1ccc(-c2cc[n+](C)cc2)cc1 [Paraquat]
Settings	Bliss interaction score
[1]	-0.0686
[2]	0.105
[3]	0.0503
[4]	-0.052

fitness
Settings	first compound 0.25 µg/mL	first compound 0.5 µg/mL	first compound 0.625 µg/mL	first compound 1 µg/mL	first compound 1.25 µg/mL	first compound 2.5 µg/mL
[5], partner 1.25 µg/mL	–	–	0.858	–	0.882	0.782
[5], partner 2.5 µg/mL	–	–	0.828	–	0.835	0.761
[5], partner 5 µg/mL	–	–	0.823	–	0.8	0.744
[6], partner 1.25 µg/mL	–	–	≥ 1	–	0.892	0.686
[6], partner 2.5 µg/mL	–	–	0.924	–	0.861	0.656
[6], partner 5 µg/mL	–	–	0.862	–	0.876	0.595
[7], partner 1.5 µg/mL	0.98	0.992	–	0.9	–	–
[7], partner 3 µg/mL	0.936	0.979	–	0.886	–	–
[7], partner 6 µg/mL	0.916	0.946	–	0.872	–	–
[8], partner 1.25 µg/mL	–	–	0.712	–	0.742	0.732
[8], partner 2.5 µg/mL	–	–	0.715	–	0.792	0.759
[8], partner 5 µg/mL	–	–	0.744	–	0.743	0.761
